Source: ChEMBL document CHEMBL1201862, “PubChem BioAssay data set” (2004)
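These data come from cells grown in 96-well plates and exposed to compound for 48 hours at five concentrations. At the GI50, growth is halved.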 Active and inactive are the calls of the source. Cut-off read from the data, not from the text of the source: active = GI50 up to about 1.1 µM and inactive = higher.

What was measured:
Assay in all cases: NCI-60 cell line screen, 48 h
SNB-19 = tested on: SNB-19
MDA-MB-231 = tested on: MDA-MB-231
UACC-257 = tested on: UACC-257
A549 = tested on: A549
COLO 205 = tested on: COLO 205
K562 = tested on: K562
NCI-H23 = tested on: NCI-H23
SK-MEL-5 = tested on: SK-MEL-5
UO-31 = tested on: UO-31
U-251 = tested on: U-251
MDA-MB-435 = tested on: MDA-MB-435
HCT-15 = tested on: HCT-15
OVCAR-4 = tested on: OVCAR-4
OVCAR-5 = tested on: OVCAR-5
HCC 2998 = tested on: HCC 2998
SF-539 = tested on: SF-539
HCT-116 = tested on: HCT-116
EKVX = tested on: EKVX
LOX IMVI = tested on: LOX IMVI
NCI-H460 = tested on: NCI-H460

Structure (SMILES)	GI50 (SNB-19)	GI50 (MDA-MB-231)	GI50 (UACC-257)	GI50 (A549)	GI50 (COLO 205)	GI50 (K562)	GI50 (NCI-H23)	GI50 (SK-MEL-5)	GI50 (UO-31)	GI50 (U-251)	GI50 (MDA-MB-435)	GI50 (HCT-15) [µM]	GI50 (OVCAR-4)	GI50 (OVCAR-5)	GI50 (HCC 2998)	GI50 (SF-539)	GI50 (HCT-116)	GI50 (EKVX)	GI50 (LOX IMVI)	GI50 (NCI-H460)
O=C1NC(N2CCCC(CO)C2)=N/C1=C\c1cccs1 (stereo not drawn)	> 100 µM (inactive)	> 100 µM (inactive)	> 100 µM (inactive)	> 100 µM (inactive)	> 100 µM (inactive)	> 100 µM (inactive)	> 100 µM (inactive)	> 100 µM (inactive)	> 100 µM (inactive)	> 100 µM (inactive)	> 100 µM (inactive)	> 100	> 100 µM (inactive)	> 100 µM (inactive)	> 100 µM (inactive)	> 100 µM (inactive)	> 100 µM (inactive)	> 100 µM (inactive)	> 100 µM (inactive)	–
CCOC(=O)c1c(N2CCCC2)[nH]c(=O)c(C(c2ccc(N(C)C)cc2)c2c(O)c(C(=O)OCC)c(N3CCCC3)[nH]c2=O)c1O	> 100 µM (inactive)	82.2 µM (inactive)	> 100 µM (inactive)	> 100 µM (inactive)	> 100 µM (inactive)	> 100 µM (inactive)	95.5 µM (inactive)	> 100 µM (inactive)	> 100 µM (inactive)	> 100 µM (inactive)	> 100 µM (inactive)	> 100	> 100 µM (inactive)	> 100 µM (inactive)	> 100 µM (inactive)	> 100 µM (inactive)	> 100 µM (inactive)	> 100 µM (inactive)	> 100 µM (inactive)	> 100 µM (inactive)
NC(=O)C(=CNC(=S)Nc1cccc(C(F)(F)F)c1)C(N)=O	> 100 µM (inactive)	> 100 µM (inactive)	> 100 µM (inactive)	> 100 µM (inactive)	> 100 µM (inactive)	> 100 µM (inactive)	> 100 µM (inactive)	> 100 µM (inactive)	> 100 µM (inactive)	> 100 µM (inactive)	> 100 µM (inactive)	–	> 100 µM (inactive)	> 100 µM (inactive)	> 100 µM (inactive)	> 100 µM (inactive)	> 100 µM (inactive)	–	> 100 µM (inactive)	> 100 µM (inactive)
COc1c2c(cc3c1C1(O)Cc4ccc5c(c4C[N+]1(C)CC3)OCO5)OCO2 (stereo not drawn)	> 100 µM (inactive)	> 100 µM (inactive)	> 100 µM (inactive)	> 100 µM (inactive)	58.5 µM (inactive)	37.3 µM (inactive)	> 100 µM (inactive)	> 100 µM (inactive)	–	> 100 µM (inactive)	> 100 µM (inactive)	> 100	> 100 µM (inactive)	> 100 µM (inactive)	33 µM (inactive)	> 100 µM (inactive)	35.1 µM (inactive)	87.3 µM (inactive)	62.1 µM (inactive)	88.1 µM (inactive)
OCC1C(OCc2ccccc2)C(OCc2ccccc2)C(OCc2ccccc2)CN1Cc1ccccc1 (stereo not drawn)	96.8 µM (inactive)	21.3 µM (inactive)	19.6 µM (inactive)	18.7 µM (inactive)	14.3 µM (inactive)	16.3 µM (inactive)	15.4 µM (inactive)	–	18.4 µM (inactive)	27.3 µM (inactive)	24.8 µM (inactive)	30.5	46.7 µM (inactive)	37.5 µM (inactive)	28.2 µM (inactive)	73.5 µM (inactive)	17.3 µM (inactive)	84.9 µM (inactive)	31.3 µM (inactive)	14.5 µM (inactive)
Sc1nnc(C23CC4CC(CC(C4)C2)C3)n1-c1ccc(Cl)cc1	27.2 µM (inactive)	21.4 µM (inactive)	22.5 µM (inactive)	8.34 µM (inactive)	13.2 µM (inactive)	9.59 µM (inactive)	27.5 µM (inactive)	3.3 µM (inactive)	13.7 µM (inactive)	9.18 µM (inactive)	12.9 µM (inactive)	7.83	16.9 µM (inactive)	35.4 µM (inactive)	13.7 µM (inactive)	22.7 µM (inactive)	7.59 µM (inactive)	–	4.54 µM (inactive)	5.69 µM (inactive)
O=c1[nH]cnc2c(C3OC(CO)C(O)C3O)c[nH]c12 (stereo not drawn)	> 100 µM (inactive)	> 100 µM (inactive)	> 100 µM (inactive)	> 100 µM (inactive)	> 100 µM (inactive)	> 100 µM (inactive)	> 100 µM (inactive)	> 100 µM (inactive)	> 100 µM (inactive)	> 100 µM (inactive)	> 100 µM (inactive)	–	> 100 µM (inactive)	> 100 µM (inactive)	> 100 µM (inactive)	> 100 µM (inactive)	> 100 µM (inactive)	> 100 µM (inactive)	> 100 µM (inactive)	> 100 µM (inactive)
COc1ccc(CCc2cc(OC)c(OC)c(OC)c2)cc1	0.111 µM (active)	0.296 µM (active)	0.544 µM (active)	0.0403 µM (active)	0.0191 µM (active)	0.012 µM (active)	0.0743 µM (active)	0.0212 µM (active)	1.95 µM (inactive)	0.0247 µM (active)	< 0.01 µM (active)	0.0169	5.05 µM (inactive)	0.456 µM (active)	0.0568 µM (active)	0.0258 µM (active)	0.0214 µM (active)	1.18 µM (inactive)	0.0372 µM (active)	0.0277 µM (active)
